From article PMC5516028, “Molecular tools for GABAA receptors: High affinity ligands for β1-containing subtypes” (Scientific Reports, 2017)
Values belong to the compound of their own block, whether it stands above or below them.

Columns and labels:
Format in all cases: cell-based
[1] = target: T1, α1β1 GABAA receptors (Rattus norvegicus, UniProt P15431+P62813); experiment: Two electrode voltage clamp in Xenopus laevis oocytes, α1β1
T1 construct: expressed in transfected cells; host or cells: Xenopus laevis oocytes, mRNA injected
T1 sequence (P62813 28-455): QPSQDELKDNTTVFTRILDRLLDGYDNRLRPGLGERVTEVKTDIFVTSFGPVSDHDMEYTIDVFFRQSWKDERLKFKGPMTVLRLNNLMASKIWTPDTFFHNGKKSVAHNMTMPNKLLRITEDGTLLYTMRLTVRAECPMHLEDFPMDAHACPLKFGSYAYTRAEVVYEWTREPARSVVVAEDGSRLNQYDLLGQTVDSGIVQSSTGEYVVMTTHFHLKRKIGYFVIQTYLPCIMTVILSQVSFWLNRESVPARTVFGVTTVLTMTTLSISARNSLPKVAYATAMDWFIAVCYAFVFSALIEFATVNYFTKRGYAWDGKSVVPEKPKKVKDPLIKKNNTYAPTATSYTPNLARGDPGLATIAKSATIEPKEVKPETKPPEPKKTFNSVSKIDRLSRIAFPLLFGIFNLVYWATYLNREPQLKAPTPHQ
T1 sequence (P15431 26-474): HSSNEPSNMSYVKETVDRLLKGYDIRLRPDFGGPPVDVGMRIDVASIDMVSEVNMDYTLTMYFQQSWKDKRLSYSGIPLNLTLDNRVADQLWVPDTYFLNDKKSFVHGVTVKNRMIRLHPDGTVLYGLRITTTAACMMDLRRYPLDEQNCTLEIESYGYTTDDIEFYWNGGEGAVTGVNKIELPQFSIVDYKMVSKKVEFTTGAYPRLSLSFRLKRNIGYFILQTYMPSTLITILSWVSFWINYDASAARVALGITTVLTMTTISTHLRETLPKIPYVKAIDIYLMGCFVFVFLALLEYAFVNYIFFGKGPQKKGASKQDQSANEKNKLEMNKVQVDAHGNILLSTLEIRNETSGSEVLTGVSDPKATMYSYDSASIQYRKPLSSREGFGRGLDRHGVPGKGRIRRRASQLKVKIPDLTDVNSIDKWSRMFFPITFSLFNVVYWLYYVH
Excerpt: (§1) cDNA’s of rat GABAA receptor subunits α1, α4, β1, β2, β3 and γ2S were cloned as described. cDNAs of the rat subunits α2, α3 and α5 were gifts from P. Malherbe, that of α6 and γ1 were gifts of P. Seeburg and that of δ was a gift of C. Czajkowski. The mutants were constructed using the Q5 Site-Directed Mutagenesis Kit (New England Biolabs) following manufacturer’s instruction. We used the wild-type rat β3-pCI vector as template and the primers […] and […] resulting in a substitution of amino acid N41 (AAC) to R (AGG). We used the wild-type rat β1-pCI vector as template and the primers […] and […] resulting in a substitution of amino acid R41 (CGG) to N (AAC). The mutated subunits were confirmed by sequencing.
(§2) In vitro transcription of mRNA was based on the cDNA expression vectors encoding for rat GABAA receptor subunits α1–6, β1-3, γ1,2, δ and the two β mutants (β1R41N and β3N41R)[40]. After linearizing the cDNA vectors with appropriate restriction endonucleases, the cDNA was purified and concentrated with the DNA Clean and Contentrator ^TM Kit (Zymoresearch, Catalog No. D4005). Capped transcripts of the purified cDNA were produced using the mMESSAGE mMACHINE® T7 transcription kit (Ambion, TX, USA) and polyadenylated using the Ambion PolyA tailing kit (Ambion). After transcription and polyadenylation the RNA was purified with the MEGAclear ^TM Kit (Ambion, Catalog No. AM1908). The final RNA concentration was measured on NanoDrop® ND-1000 and finally diluted and stored in diethylpyrocarbonate-treated water at −80 °C. For the microinjection, the RNA of αβ receptor combinations was mixed at 1:1 ratio (which leads to αβ receptors that consist of predominantly 3 beta and 2 alpha subunits[27]), for αkβlγm (k = 1–3, l = 1, 3, m = 1, 2) receptors at 1:1:5 ratio, for αkβ3γ2 (k = 4–6) and αkβlδ (k = 1, 4 and 6, l = 1, 3) receptor combinations at 3:1:5 ratio.
(§3) Mature female Xenopus laevis (Nasco, WI) were anesthetized in a bath of ice-cold 0.17% Tricain (Ethyl-m-aminobenzoate, Sigma, MO) before decapitation in full accordance with all rules of the Austrian animal protection law (see http://www.ris.bka.gv.at/Dokumente/BgblAuth/BGBLA_2012_I_114/BGBLA_2012_I_114.pdf) and the Austrian animal experiment by-laws (see https://www.ris.bka.gv.at/Dokumente/BgblAuth/BGBLA_2012_II_522/BGBLA_2012_II_522.pdf) which implement the European Directive 2010/63/EU (see http://eur-lex.europa.eu/LexUriServ/LexUriServ.do?uri=OJ:L:2010:276:0033:0079:en:PDF) into the Austrian law (all information accessed on July 27, 2016). The frog’s ovaries were transferred to ND96 medium (96 mM NaCl, 2 mM KCl, 1 mM MgCl2, 5 mM HEPES; pH 7.5). Stage 5–6 oocytes with the follicle cell layer around them were roughly dissected with forceps into packages of 10–15 cells and washed in Ca^2+-free ND96 medium. Cells were then digested with collagenase (type IA, Sigma, NO, 1 mg/mL ND96) at 18 °C shaking at 30 rpm for 30–60 minutes and gently defolliculated with the aid of a glass pipette with appropriate tip diameter and a platinum loop. Defolliculated cells were stored at 18 °C for at least 6 hours in ND96 solution containing penicillin G (10000 IU/100 mL) and streptomycin (10 mg/100 mL) in order to preselect and exclude damaged cells from further treatment. Healthy defolliculated oocytes were injected with an aqueous solution of mRNA. A total of 4.5 ng of mRNA per oocyte was injected with a Nanoject II (Drummond). After injection of mRNA, oocytes were incubated at 18 °C (ND96 + antibiotic) for 2–3 days for αβ receptors and for 3–4 days for αβγ or αβδ receptors before recording. When cells were measured at later time points, oocytes were stored at +4 °C instead of 18 °C.
(§4) For electrophysiological recordings, oocytes were placed on a nylon-grid in a bath of Ca^2+-containing NDE solution medium [96 mM NaCl, 5 mM HEPES-NaOH (pH 7.5), 2 mM KCl, 1 mM MgCl2, 1.8 mM CaCl2].

[2] = target: T2, α1β2 GABAA receptors (Rattus norvegicus, UniProt P62813+P63138); experiment: Two electrode voltage clamp in Xenopus laevis oocytes, α1β2
T2 construct: expressed in transfected cells; host or cells: Xenopus laevis oocytes, mRNA injected
T2 sequence (P62813 28-455): as the sequence (P62813 28-455) above
T2 sequence (P63138 25-474 limits assumed): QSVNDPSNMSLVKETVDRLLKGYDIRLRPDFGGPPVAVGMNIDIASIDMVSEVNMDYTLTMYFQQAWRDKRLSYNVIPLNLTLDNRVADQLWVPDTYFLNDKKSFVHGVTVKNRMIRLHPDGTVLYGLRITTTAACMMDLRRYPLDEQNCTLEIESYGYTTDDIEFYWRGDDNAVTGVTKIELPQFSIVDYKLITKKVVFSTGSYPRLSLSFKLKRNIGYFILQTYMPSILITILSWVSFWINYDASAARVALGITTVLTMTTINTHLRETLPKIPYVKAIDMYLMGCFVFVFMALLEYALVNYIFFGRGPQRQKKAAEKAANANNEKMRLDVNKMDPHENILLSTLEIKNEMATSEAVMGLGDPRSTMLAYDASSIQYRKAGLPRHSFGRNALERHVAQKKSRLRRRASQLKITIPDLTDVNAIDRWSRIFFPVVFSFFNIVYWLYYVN
Excerpt: as §1, §2, §3, §4

[3] = target: T3, α1β3 GABAA receptors (Rattus norvegicus, UniProt P62813+P63079); experiment: Two electrode voltage clamp in Xenopus laevis oocytes, α1β3
T3 construct: expressed in transfected cells; host or cells: Xenopus laevis oocytes, mRNA injected
T3 sequence (P62813 28-455): as the sequence (P62813 28-455) above
T3 sequence (P63079 26-473): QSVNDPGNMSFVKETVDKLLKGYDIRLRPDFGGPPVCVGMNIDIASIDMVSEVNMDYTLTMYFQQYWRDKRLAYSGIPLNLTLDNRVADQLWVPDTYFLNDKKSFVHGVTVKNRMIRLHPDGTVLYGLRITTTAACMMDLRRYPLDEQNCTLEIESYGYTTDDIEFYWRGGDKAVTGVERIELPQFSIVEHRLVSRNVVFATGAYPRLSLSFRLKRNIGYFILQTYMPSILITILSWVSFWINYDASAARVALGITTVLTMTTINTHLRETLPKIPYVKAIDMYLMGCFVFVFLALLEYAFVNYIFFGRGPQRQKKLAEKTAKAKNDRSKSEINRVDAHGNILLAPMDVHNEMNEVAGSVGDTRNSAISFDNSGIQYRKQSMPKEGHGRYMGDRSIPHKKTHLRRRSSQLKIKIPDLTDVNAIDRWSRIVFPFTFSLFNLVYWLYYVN
Excerpt: as §1, §2, §3, §4

[4] = target: T4, α1β1R41N GABAA receptors (Rattus norvegicus, UniProt P15431+P62813, R66N); experiment: Two electrode voltage clamp in Xenopus laevis oocytes, mutant α1β1R41N; conditions: read-out: % of control current at EC3-5
T4 construct: expressed in transfected cells; host or cells: Xenopus laevis oocytes, mRNA injected
T4 sequence (P62813 28-455): as the sequence (P62813 28-455) above
T4 sequence (P15431 26-474 R66N): as the sequence (P15431 26-474) above, with R41N counted along it
Excerpt: as §1, §2, §3, §4

[5] = target: T5, α1β3N41R GABAA receptors (Rattus norvegicus, UniProt P62813+P63079, N66R); experiment: Two electrode voltage clamp in Xenopus laevis oocytes, mutant α1β3N41R; conditions: co-applied with GABA EC3-5, read-out: EC50 values for the mutated receptors
T5 construct: expressed in transfected cells; host or cells: Xenopus laevis oocytes, mRNA injected
T5 sequence (P62813 28-455): as the sequence (P62813 28-455) above
T5 sequence (P63079 26-473 N66R): as the sequence (P63079 26-473) above, with N41R counted along it
Excerpt: as §1, §2, §3, §4

[6] = target: T6, α1β1γ1 GABAA receptors (Rattus norvegicus, UniProt P15431+P62813); experiment: Two electrode voltage clamp in Xenopus laevis oocytes, α1β1γ1
T6 construct: expressed in transfected cells; host or cells: Xenopus laevis oocytes, mRNA injected
T6 sequence (P62813 28-455): as the sequence (P62813 28-455) above
T6 sequence (P15431 26-474): as the sequence (P15431 26-474) above
T6 sequence (P23574 36-465 partner limits assumed): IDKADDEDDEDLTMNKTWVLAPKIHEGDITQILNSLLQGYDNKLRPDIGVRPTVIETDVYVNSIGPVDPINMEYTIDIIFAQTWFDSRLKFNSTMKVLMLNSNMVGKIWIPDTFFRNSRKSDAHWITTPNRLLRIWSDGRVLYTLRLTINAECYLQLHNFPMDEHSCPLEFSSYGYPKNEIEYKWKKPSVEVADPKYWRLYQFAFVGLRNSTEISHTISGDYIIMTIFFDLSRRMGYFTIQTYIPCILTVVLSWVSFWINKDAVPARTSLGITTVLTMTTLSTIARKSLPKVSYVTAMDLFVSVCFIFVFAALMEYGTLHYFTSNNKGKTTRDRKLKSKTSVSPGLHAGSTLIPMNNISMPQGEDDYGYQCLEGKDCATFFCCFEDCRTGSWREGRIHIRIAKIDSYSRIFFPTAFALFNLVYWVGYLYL
Excerpt: as §1, §2, §3, §4

[7] = target: T7, α1β1δ GABAA receptors (Rattus norvegicus, UniProt P15431+P62813); experiment: Two electrode voltage clamp in Xenopus laevis oocytes, α1β1δ
T7 construct: expressed in transfected cells; host or cells: Xenopus laevis oocytes, mRNA injected
T7 sequence (P62813 28-455): as the sequence (P62813 28-455) above
T7 sequence (P15431 26-474): as the sequence (P15431 26-474) above
T7 sequence (P18506 17-449 partner limits assumed): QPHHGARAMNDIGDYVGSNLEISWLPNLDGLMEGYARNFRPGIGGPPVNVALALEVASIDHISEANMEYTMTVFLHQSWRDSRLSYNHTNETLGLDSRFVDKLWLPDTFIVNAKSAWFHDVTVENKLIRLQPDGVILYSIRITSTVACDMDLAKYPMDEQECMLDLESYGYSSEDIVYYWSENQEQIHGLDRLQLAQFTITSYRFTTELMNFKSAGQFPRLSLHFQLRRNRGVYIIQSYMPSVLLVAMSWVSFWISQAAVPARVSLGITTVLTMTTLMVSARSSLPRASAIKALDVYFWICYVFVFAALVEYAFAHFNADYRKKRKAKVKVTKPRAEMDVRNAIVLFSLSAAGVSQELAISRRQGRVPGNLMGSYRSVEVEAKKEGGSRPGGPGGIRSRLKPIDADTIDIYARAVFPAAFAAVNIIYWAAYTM
Excerpt: as §1, §2, §3, §4

activity at 0.01 µM ([1]; read-out: efficacy, % of control current (GABA EC3-5 = 100%), α1β1, 10 nM): 123%
activity at 10 µM ([1]; read-out: efficacy, % of control current (GABA EC3-5 = 100%), α1β1, 10 µM): 732 ± 141%
activity at 30 µM ([1]; read-out: efficacy, % of control current (GABA EC3-5 = 100%), α1β1, 30 µM): 637 ± 114%
Hill slope (nH) ([1]; α1β1): 1.0± 0.5
EC50 ([1]; α1β1, co-applied with GABA EC3-5, read-out: EC50): 710 nM
EC50 [2]: 3740 nM
activity at 0.003 µM ([2]; read-out: efficacy, % of control current (GABA EC3-5 = 100%), α1β2, 3 nM): 100%
activity at 1 µM ([2]; read-out: efficacy, % of control current (GABA EC3-5 = 100%), α1β2, 1 µM): 179 ± 8.3%
activity at 30 µM ([2]; read-out: efficacy, % of control current (GABA EC3-5 = 100%), α1β2, 30 µM): 651 ± 148%
Hill slope (nH) ([2]; α1β2): 2.8±1.7
activity at 0.01 µM ([3]; read-out: efficacy, % of control current (GABA EC3-5 = 100%), α1β3, 10 nM): 111 ± 5.7%
activity at 0.03 µM ([3]; read-out: efficacy, % of control current (GABA EC3-5 = 100%), α1β3, 30 nM): 115 ± 8.1%
activity at 0.1 µM ([3]; read-out: efficacy, % of control current (GABA EC3-5 = 100%), α1β3, 100 nM): 126 ± 11.5%
activity at 30 µM ([3]; read-out: efficacy, % of control current (GABA EC3-5 = 100%), α1β3, 30 µM): 623 ± 114%
EC50 ([3]; α1β3, co-applied with GABA EC3-5, read-out: EC50): 3490 nM
current as % of control at 0.1 µM ([4]; 100nM): 95 ± 20%
current as % of control at 0.3 µM ([4]; 300nM): 85 ± 25%
current as % of control at 1 µM ([4]; 1μM): 100 ± 30%
current as % of control at 3 µM ([4]; 3µM): 120 ± 30%
current as % of control at 10 µM ([4]; 10μM): 155 ± 40%
current as % of control at 30 µM ([4]; 30μM): 160 ± 40%
EC50 [5]: 2470 nM
Compound: COc1ccc2[nH]cc3c(=O)n(-c4ccc(C)cc4)nc-3c2c1 [Compound 5, 8-Methoxy-2-(4-methylphenyl)-2,5-dihydro-3H-pyrazolo[4,3-c]quinolin-3-one]

shift of modulatory dose-response relative to parent compound 1 ([1]; α1β1, α1β1γ1 and α1β1δ receptors (Fig. 6), versus compound 1): approximately twenty-fold right shift
EC50 [6]: 21000 nM
activity at 0.003 µM ([6]; read-out: efficacy, % of control current (GABA EC3-5 = 100%), α1β1γ1, 3 nM): 105.1 ± 0.7%
activity at 0.01 µM ([6]; read-out: efficacy, % of control current (GABA EC3-5 = 100%), α1β1γ1, 10 nM): 106 ± 1.9%
activity at 0.03 µM ([6]; read-out: efficacy, % of control current (GABA EC3-5 = 100%), α1β1γ1, 30 nM): 108 ± 1.4%
activity at 0.1 µM ([6]; read-out: efficacy, % of control current (GABA EC3-5 = 100%), α1β1γ1, 100 nM): 112 ± 0.9%
activity at 1 µM ([6]; read-out: efficacy, % of control current (GABA EC3-5 = 100%), α1β1γ1, 1 µM): 121 ± 3.2%
activity at 3 µM ([6]; read-out: efficacy, % of control current (GABA EC3-5 = 100%), α1β1γ1, 3 µM): 159 ± 3.2%
activity at 10 µM ([6]; read-out: efficacy, % of control current (GABA EC3-5 = 100%), α1β1γ1, 10 µM): 175 ± 13.6%
Hill slope (nH) ([6]; α1β1γ1): 0.6±0.2
EC50 ([7]; read-out: EC50): 2300 nM
activity at 0.003 µM ([7]; read-out: efficacy, % of control current (GABA EC3-5 = 100%), α1β1δ, 3 nM): 100 ± 0.7%
activity at 0.01 µM ([7]; read-out: efficacy, % of control current (GABA EC3-5 = 100%), α1β1δ, 10 nM): 106 ± 2.8%
activity at 0.03 µM ([7]; read-out: efficacy, % of control current (GABA EC3-5 = 100%), α1β1δ, 30 nM): 108 ± 5.2%
activity at 0.1 µM ([7]; read-out: efficacy, % of control current (GABA EC3-5 = 100%), α1β1δ, 100 nM): 128 ± 3.4%
activity at 0.3 µM ([7]; read-out: efficacy, % of control current (GABA EC3-5 = 100%), α1β1δ, 300 nM): 163 ± 6.2%
activity at 1 µM ([7]; read-out: efficacy, % of control current (GABA EC3-5 = 100%), α1β1δ, 1 µM): 381 ± 48.7%
activity at 3 µM ([7]; read-out: efficacy, % of control current (GABA EC3-5 = 100%), α1β1δ, 3 µM): 636 ± 116%
activity at 10 µM ([7]; read-out: efficacy, % of control current (GABA EC3-5 = 100%), α1β1δ, 10 µM): 885 ± 293%
Hill slope (nH) ([7]; α1β1δ): 1.1±0.8
Compound: COc1ccc(-n2nc3c4cc(Cl)cc(C(C)(C)C)c4[nH]cc-3c2=O)cc1 [Compound 7, 6-(tert-Butyl)-8-chloro-2-(4-methoxyphenyl)-2,5-dihydro-3H-pyrazolo[4,3-c]quinolin-3-one]
